# Data: paper PMC11851430, “Workflow for E3 Ligase Ligand Validation for PROTAC Development” (ACS Chemical Biology, 2025)
# Experiments:
# Experiment in all cases: DSF assay
# Assay type in all cases: binding
# Details in all cases: 20 µM compound
# [1] = system: BRPF1A
# [2] = target: T1, EPHB3A (Homo sapiens, UniProt P54753)
# T1 construct: purchased in-house DSF panel (SGC-style construct names; the trailing A/B is a construct suffix)
# T1 sequence (P54753 633-896): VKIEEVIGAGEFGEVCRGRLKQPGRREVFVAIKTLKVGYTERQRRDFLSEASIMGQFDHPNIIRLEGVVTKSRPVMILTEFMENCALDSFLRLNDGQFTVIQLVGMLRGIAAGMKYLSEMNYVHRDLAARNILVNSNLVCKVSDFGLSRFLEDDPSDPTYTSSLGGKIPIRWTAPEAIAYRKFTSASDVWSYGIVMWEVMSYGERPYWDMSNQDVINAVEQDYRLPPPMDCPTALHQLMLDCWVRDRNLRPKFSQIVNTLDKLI
# [3] = target: T2, FESA (Homo sapiens, UniProt P07332)
# T2 construct: purchased in-house DSF panel (SGC-style construct names; the trailing A/B is a construct suffix)
# [4] = target: T3, GSG2A (Homo sapiens, UniProt Q8TF76)
# T3 construct: purchased in-house DSF panel (SGC-style construct names; the trailing A/B is a construct suffix)
# T3 sequence (Q8TF76 465-798): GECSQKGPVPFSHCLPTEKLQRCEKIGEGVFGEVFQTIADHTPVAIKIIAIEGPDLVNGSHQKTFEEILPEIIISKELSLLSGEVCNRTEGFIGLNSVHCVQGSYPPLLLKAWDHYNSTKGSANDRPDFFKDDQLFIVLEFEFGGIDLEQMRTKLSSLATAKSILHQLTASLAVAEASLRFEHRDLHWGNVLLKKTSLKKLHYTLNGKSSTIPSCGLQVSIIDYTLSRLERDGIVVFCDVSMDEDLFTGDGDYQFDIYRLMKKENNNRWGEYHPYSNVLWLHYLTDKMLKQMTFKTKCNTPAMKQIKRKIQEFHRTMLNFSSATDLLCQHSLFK
# [5] = target: T4, CSNK1DA (Homo sapiens, UniProt P48730)
# T4 construct: purchased in-house DSF panel (SGC-style construct names; the trailing A/B is a construct suffix)
# T4 sequence (P48730 1-294): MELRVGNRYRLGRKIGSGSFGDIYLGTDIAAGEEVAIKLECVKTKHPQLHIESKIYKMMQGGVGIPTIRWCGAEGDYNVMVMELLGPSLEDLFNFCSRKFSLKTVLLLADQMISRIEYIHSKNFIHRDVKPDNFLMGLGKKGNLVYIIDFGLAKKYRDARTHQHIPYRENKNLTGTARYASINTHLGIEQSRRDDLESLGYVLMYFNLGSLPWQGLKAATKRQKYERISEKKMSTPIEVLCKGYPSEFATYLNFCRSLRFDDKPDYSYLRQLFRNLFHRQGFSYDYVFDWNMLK
# Experimental: (§1) Excitation and emission filters […]
# (§2) curve. […] Measurements were
# (§3) Kinobeads selectivity profiling of PROTACs
# (§4) (Multiplexion, Heidelberg, Germany).
# (§5) The cell lysate was ultracentrifuged and diluted
# (§6) NaF, 1 mM DTT, protease inhibitors and phosphatase inhibitors to a final concentration of 5 mg/ml as determined by Bradford assay. For selectivity profiling of compounds the cell lysate (2.5 mg of total proteins per pulldown) was pre-incubated with increasing compound […]
# (§7) µM) for 45 min at 4 °C in an end-over-end shaker. Subsequently, lysates were incubated with Kinobeads epsilon (17 µL settled beads) for 30 min at 4 °C. To assess the degree of protein depletion from the lysates by Kinobeads, the flow-through of the DMSO control was recovered
# [6] = target: T5, EPHA5A (Homo sapiens, UniProt P54756)
# T5 construct: purchased in-house DSF panel (SGC-style construct names; the trailing A/B is a construct suffix)
# T5 sequence (P54756 653-939): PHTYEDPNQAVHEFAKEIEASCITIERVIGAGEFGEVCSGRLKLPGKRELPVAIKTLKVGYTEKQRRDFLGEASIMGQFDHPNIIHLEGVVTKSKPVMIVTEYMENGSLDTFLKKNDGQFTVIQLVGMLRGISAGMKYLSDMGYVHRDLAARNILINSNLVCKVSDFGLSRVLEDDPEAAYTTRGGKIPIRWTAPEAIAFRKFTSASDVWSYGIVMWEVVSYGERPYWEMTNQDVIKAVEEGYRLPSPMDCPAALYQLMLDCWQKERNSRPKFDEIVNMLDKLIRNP
# Experimental: as §1, §2, §3, §4, §5, §6, §7
# [7] = system: RPS6KA1A
# Experimental: as §1, §2, §3, §4, §5, §6, §7
# [8] = target: T6, STK38LA (Homo sapiens, UniProt Q9Y2H1)
# T6 construct: purchased in-house DSF panel (SGC-style construct names; the trailing A/B is a construct suffix)
# Experimental: as §1, §2, §3, §4, §5, §6, §7
# [9] = target: T7, PDK4A (Homo sapiens, UniProt Q16654)
# T7 construct: purchased in-house DSF panel (SGC-style construct names; the trailing A/B is a construct suffix)
# [10] = target: T8, STK17B (Homo sapiens, UniProt O94768)
# T8 construct: purchased in-house DSF panel (SGC-style construct names; the trailing A/B is a construct suffix)
# T8 sequence (O94768 25-329): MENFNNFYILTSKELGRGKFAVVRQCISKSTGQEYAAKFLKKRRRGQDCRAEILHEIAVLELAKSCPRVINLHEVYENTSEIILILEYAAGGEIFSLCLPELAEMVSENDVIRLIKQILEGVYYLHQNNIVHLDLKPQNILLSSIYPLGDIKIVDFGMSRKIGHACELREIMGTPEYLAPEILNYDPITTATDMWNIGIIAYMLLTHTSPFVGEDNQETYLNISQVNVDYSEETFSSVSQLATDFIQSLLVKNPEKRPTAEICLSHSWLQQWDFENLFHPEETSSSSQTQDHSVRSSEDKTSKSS
# [11] = target: T9, STK6A (Homo sapiens, UniProt O14965)
# T9 construct: purchased in-house DSF panel (SGC-style construct names; the trailing A/B is a construct suffix)
# T9 sequence (O14965 122-403): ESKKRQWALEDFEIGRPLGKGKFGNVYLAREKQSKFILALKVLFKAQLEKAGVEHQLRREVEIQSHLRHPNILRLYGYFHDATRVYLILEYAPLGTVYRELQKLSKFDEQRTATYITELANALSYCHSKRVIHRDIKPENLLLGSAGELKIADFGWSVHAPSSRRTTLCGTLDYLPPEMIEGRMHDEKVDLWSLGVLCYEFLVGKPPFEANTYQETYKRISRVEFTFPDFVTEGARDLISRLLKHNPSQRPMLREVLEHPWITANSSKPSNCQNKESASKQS
# [12] = system: TAF1A
# [13] = target: T10, TOPKA (Homo sapiens, UniProt Q96KB5)
# T10 construct: purchased in-house DSF panel (SGC-style construct names; the trailing A/B is a construct suffix)
# T10 sequence (Q96KB5 32-322): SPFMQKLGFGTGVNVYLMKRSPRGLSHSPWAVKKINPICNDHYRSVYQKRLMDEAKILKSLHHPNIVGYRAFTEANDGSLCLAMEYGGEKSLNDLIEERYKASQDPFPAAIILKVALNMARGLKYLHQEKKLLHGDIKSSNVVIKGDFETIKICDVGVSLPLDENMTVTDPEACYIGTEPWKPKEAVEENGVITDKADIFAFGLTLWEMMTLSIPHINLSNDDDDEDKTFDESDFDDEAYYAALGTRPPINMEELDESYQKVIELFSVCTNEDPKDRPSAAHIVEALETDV
# T2 sequence (P07332 whole entry): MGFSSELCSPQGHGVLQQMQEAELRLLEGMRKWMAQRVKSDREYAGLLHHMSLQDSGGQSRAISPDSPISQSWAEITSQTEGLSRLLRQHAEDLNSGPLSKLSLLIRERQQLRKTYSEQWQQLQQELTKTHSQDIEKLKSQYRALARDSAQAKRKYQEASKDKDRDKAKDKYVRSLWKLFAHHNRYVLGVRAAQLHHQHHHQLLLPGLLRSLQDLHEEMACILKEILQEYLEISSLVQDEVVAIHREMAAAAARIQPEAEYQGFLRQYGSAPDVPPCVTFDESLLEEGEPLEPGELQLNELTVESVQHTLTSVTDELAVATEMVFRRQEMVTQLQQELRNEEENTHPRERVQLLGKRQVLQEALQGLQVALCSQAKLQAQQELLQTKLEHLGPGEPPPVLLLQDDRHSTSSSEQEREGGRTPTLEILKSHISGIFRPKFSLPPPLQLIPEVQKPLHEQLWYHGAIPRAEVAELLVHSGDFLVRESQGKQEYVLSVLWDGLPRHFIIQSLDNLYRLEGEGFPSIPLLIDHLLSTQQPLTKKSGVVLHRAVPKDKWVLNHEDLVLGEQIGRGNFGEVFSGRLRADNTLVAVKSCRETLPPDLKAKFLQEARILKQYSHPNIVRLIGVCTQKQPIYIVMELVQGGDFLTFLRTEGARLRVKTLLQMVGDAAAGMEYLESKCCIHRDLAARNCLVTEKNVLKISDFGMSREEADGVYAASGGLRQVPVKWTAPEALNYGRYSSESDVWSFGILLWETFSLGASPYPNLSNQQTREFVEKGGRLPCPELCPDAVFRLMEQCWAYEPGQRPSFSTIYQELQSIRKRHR
# T7 sequence (Q16654 whole entry): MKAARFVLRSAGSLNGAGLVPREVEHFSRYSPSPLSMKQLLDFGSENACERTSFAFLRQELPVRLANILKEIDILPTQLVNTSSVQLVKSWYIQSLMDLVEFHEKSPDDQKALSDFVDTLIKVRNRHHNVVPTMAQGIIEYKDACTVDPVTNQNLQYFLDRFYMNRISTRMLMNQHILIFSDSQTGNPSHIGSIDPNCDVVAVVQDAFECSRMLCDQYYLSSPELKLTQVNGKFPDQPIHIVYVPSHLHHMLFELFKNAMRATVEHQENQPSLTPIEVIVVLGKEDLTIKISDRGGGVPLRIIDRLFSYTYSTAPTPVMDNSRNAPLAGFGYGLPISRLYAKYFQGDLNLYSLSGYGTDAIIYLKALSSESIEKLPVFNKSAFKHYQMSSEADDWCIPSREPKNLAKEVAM
# T6 sequence (Q9Y2H1 90-453): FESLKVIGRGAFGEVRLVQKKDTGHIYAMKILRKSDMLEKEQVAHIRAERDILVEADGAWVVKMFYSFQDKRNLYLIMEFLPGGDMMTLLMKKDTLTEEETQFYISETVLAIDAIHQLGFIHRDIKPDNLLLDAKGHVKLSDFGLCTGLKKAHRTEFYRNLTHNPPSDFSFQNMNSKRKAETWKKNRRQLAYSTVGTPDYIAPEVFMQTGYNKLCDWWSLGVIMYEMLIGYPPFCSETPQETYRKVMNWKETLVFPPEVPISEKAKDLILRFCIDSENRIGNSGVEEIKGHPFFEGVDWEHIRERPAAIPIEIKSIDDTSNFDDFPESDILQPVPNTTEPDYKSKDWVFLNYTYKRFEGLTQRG
ΔTm at 20 µM [2] [°C],ΔTm at 20 µM [3] [°C],ΔTm at 20 µM [4] [°C],ΔTm at 20 µM [5] [°C],ΔTm at 20 µM [6] [°C],ΔTm at 20 µM [8] [°C],ΔTm at 20 µM [9] [°C],ΔTm at 20 µM [10] [°C],ΔTm at 20 µM [11] [°C],ΔTm at 20 µM [13] [°C],Compound,ΔTm [1] [°C],ΔTm [7] [°C],ΔTm [12] [°C]
6.97,4.19,1.36,3.01,7.97,10.2,1.49,1.6,18.7,0.95,CC(C)(C)OC(=O)NCCOCCOCCOCCOCCC(=O)N1CCN(c2cc(Nc3cc(C4CC4)[nH]n3)nc(Nc3ccc(CC#N)cc3)n2)CC1 [4-L],1.15,0.76,-0.59
2.47,2.67,1.49,5.43,4.95,7.04,0.13,1.81,12.2,1.75,CC(C)(C)OC(=O)NCCCOCCOCCOCCCNC(=O)c1cc(Nc2cc(C3CC3)[nH]n2)nc(Nc2ccc(CC#N)cc2)n1 [5-L],-0.68,1.85,0.26
4.23,3.17,2.54,2.62,5.7,6.74,0.03,2.58,14.4,2.93,CCOC(=O)c1cc(Nc2cc(C3CC3)[nH]n2)nc(Nc2ccc(CC#N)cc2)n1 [compound 5],-0.64,1.55,0.35
